Legend:
recombinant NL4-3 virus = experiment: HIV cell culture assay (antiviral activity, luciferase readout); assay type: cell-based; details: Human immunodeficiency virus 1, NL43, MT2, MT-2 cells infected for 4-5 days with recombinant NL4-3 virus carrying Renilla luciferase
Method in brief: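 MT-2 cells infected for 4-5 days with NL4-3 reference virus carrying Renilla luciferase in place of part of nef, in presence of serial compound dilutions. Luciferase read with live-cell substrate; EC50 from median effect equation fit.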

[1] = Compound cytotoxicity, XTT-based colorimetric assay; assay type: cell-based; details: human; uninfected MT2 cells, day 4, XTT assay
Method in brief: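 Run under the antiviral-assay protocol but without virus. Viability was read on day 4 and CC50 values were derived from the readout.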

Cn1nc(NS(C)(=O)=O)c2c(Cl)ccc(-n3c([C@H](Cc4cc(F)cc(F)c4)NC(=O)Cn4nc(C(F)F)c5c4C(F)(F)[C@@H]4C[C@H]54)nc4nc(-c5cnn(CCF)c5)ccc4c3=O)c21 (atropisomer, axis not shown; (P)) [Example 76, N-((S)-1-((3P)-3-(4-chloro-1-methyl-3-(methylsulfonamido)-1H-indazol-7-yl)-7-(1-(2-fluoroethyl)-1H-pyrazol-4-yl)-4-oxo-3,4-dihydropyrido[2,3-d]pyrimidin-2-yl)-2-(3,5-difluorophenyl)ethyl)-2-((3bS,4aR)-3-(difluoromethyl)-5,5-difluoro-3b,4,4a,5-tetrahydro-1H-cyclopropa[3,4]cyclopenta[1,2-c]pyrazol-1-yl)acetamide]
EC50 (recombinant NL4-3 virus): 110 pM
CC50 at 4 day [1]: > 100000 pM

Cc1cc(-c2ccc3c(=O)n(-c4ccc(Cl)c5c(NS(C)(=O)=O)nn(C)c45)c([C@H](Cc4cc(F)cc(F)c4)NC(=O)Cn4nc(C(F)F)c5c4C(F)(F)[C@@H]4C[C@H]54)nc3n2)nn1CC(C)(F)F (single isomer, unassigned) [Example 96]
EC50 (recombinant NL4-3 virus): 44 pM
CC50 at 4 day [1]: > 100000 pM

Cn1nc(NS(C)(=O)=O)c2c(Cl)ccc(-n3c([C@H](Cc4cc(F)cc(F)c4)NC(=O)Cn4nc(C(F)F)c5c4C(F)(F)[C@@H]4C[C@H]54)nc4nc(-c5ccn(CC(F)F)n5)ccc4c3=O)c21 (atropisomer, axis not shown; (P)) [Example 79, N-((S)-1-((3P)-3-(4-chloro-1-methyl-3-(methylsulfonamido)-1H-indazol-7-yl)-7-(1-(2,2-difluoroethyl)-1H-pyrazol-3-yl)-4-oxo-3,4-dihydropyrido[2,3-d]pyrimidin-2-yl)-2-(3,5-difluorophenyl)ethyl)-2-((3bS,4aR)-3-(difluoromethyl)-5,5-difluoro-3b,4,4a,5-tetrahydro-1H-cyclopropa[3,4]cyclopenta[1,2-c]pyrazol-1-yl)acetamide]
EC50 (recombinant NL4-3 virus): 47 pM
CC50 at 4 day [1]: > 100000 pM

Cn1nc(NS(C)(=O)=O)c2c(Cl)ccc(-n3c([C@H](Cc4cc(F)cc(F)c4)NC(=O)Cn4nc(C(F)F)c5c4C(F)(F)[C@@H]4C[C@H]54)nc4nc(-c5cccc(F)n5)ccc4c3=O)c21 (atropisomer, axis not shown; (P)) [Example 30, N-((S)-1-((3P)-3-(4-chloro-1-methyl-3-(methylsulfonamido)-1H-indazol-7-yl)-7-(6-fluoropyridin-2-yl)-4-oxo-3,4-dihydropyrido[2,3-d]pyrimidin-2-yl)-2-(3,5-difluorophenyl)ethyl)-2-((3bS,4aR)-3-(difluoromethyl)-5,5-difluoro-3b,4,4a,5-tetrahydro-1H-cyclopropa[3,4]cyclopenta[1,2-c]pyrazol-1-yl)acetamide]
EC50 (recombinant NL4-3 virus): 34 pM
CC50 at 4 day [1]: > 100000 pM

Cn1nc(NS(C)(=O)=O)c2c(Cl)ccc(-n3c([C@H](Cc4cc(F)cc(F)c4)NC(=O)Cn4nc(C(F)F)c5c4C(F)(F)[C@@H]4C[C@H]54)nc4nc(-c5ccc(OC(F)(F)F)cc5)ccc4c3=O)c21 (atropisomer, axis not shown; (P)) [Example 26, N-((S)-1-((3P)-3-(4-chloro-1-methyl-3-(methylsulfonamido)-1H-indazol-7-yl)-4-oxo-7-(4-(trifluoromethoxy)phenyl)-3,4-dihydropyrido[2,3-d]pyrimidin-2-yl)-2-(3,5-difluorophenyl)ethyl)-2-((3bS,4aR)-3-(difluoromethyl)-5,5-difluoro-3b,4,4a,5-tetrahydro-1H-cyclopropa[3,4]cyclopenta[1,2-c]pyrazol-1-yl)acetamide]
EC50 (recombinant NL4-3 virus): 510 pM
CC50 at 4 day [1]: > 100000 pM

Cn1nc(NS(C)(=O)=O)c2c(Cl)ccc(-n3c([C@H](Cc4cc(F)cc(F)c4)NC(=O)Cn4nc(C(F)F)c5c4C(F)(F)[C@@H]4C[C@H]54)nc4ncc(-c5cccc(C(F)F)n5)cc4c3=O)c21 (atropisomer, axis not shown; (P)) [Example 3, N-((S)-1-((3P)-3-(4-chloro-1-methyl-3-(methylsulfonamido)-1H-indazol-7-yl)-6-(6-(difluoromethyl)pyridin-2-yl)-4-oxo-3,4-dihydropyrido[2,3-d]pyrimidin-2-yl)-2-(3,5-difluorophenyl)ethyl)-2-((3bS,4aR)-3-(difluoromethyl)-5,5-difluoro-3b,4,4a,5-tetrahydro-1H-cyclopropa[3,4]cyclopenta[1,2-c]pyrazol-1-yl)acetamide]
EC50 (recombinant NL4-3 virus): 51 pM
CC50 at 4 day [1]: > 100000 pM

Cn1nc(NS(C)(=O)=O)c2c(Cl)ccc(-n3c([C@H](Cc4cc(F)cc(F)c4)NC(=O)Cn4nc(C(F)F)c5c4C(F)(F)[C@@H]4C[C@H]54)nc4nc(-c5ccc(F)cc5C(F)(F)F)ccc4c3=O)c21 (atropisomer, axis not shown; (P)) [Example 22, N-((S)-1-((3P)-3-(4-chloro-1-methyl-3-(methylsulfonamido)-1H-indazol-7-yl)-7-(4-fluoro-2-(trifluoromethyl)phenyl)-4-oxo-3,4-dihydropyrido[2,3-d]pyrimidin-2-yl)-2-(3,5-difluorophenyl)ethyl)-2-((3bS,4aR)-3-(difluoromethyl)-5,5-difluoro-3b,4,4a,5-tetrahydro-1H-cyclopropa[3,4]cyclopenta[1,2-c]pyrazol-1-yl)acetamide]
EC50 (recombinant NL4-3 virus): 52 pM
CC50 at 4 day [1]: > 100000 pM

Cn1nc(NS(C)(=O)=O)c2c(Cl)ccc(-n3c([C@H](Cc4cc(F)cc(F)c4)NC(=O)Cn4nc(C(F)F)c5c4C(F)(F)[C@@H]4C[C@H]54)nc4nc(-c5csc(C(C)(C)O)n5)ccc4c3=O)c21 (atropisomer, axis not shown; (P)) [Example 91, N-((S)-1-((3P)-3-(4-chloro-1-methyl-3-(methylsulfonamido)-1H-indazol-7-yl)-7-(2-(2-hydroxypropan-2-yl)thiazol-4-yl)-4-oxo-3,4-dihydropyrido[2,3-d]pyrimidin-2-yl)-2-(3,5-difluorophenyl)ethyl)-2-((3bS,4aR)-3-(difluoromethyl)-5,5-difluoro-3b,4,4a,5-tetrahydro-1H-cyclopropa[3,4]cyclopenta[1,2-c]pyrazol-1-yl)acetamide]
EC50 (recombinant NL4-3 virus): 37 pM
CC50 at 4 day [1]: > 100000 pM

Cn1nc(NS(C)(=O)=O)c2c(Cl)ccc(-n3c([C@H](Cc4cc(F)cc(F)c4)NC(=O)Cn4nc(C(F)F)c5c4C(F)(F)[C@@H]4C[C@H]54)nc4nc(-c5cnn(CC(F)(F)F)c5)ccc4c3=O)c21 (atropisomer, axis not shown; (P)) [Example 75, N-((S)-1-((3P)-3-(4-chloro-1-methyl-3-(methylsulfonamido)-1H-indazol-7-yl)-4-oxo-7-(1-(2,2,2-trifluoroethyl)-1H-pyrazol-4-yl)-3,4-dihydropyrido[2,3-d]pyrimidin-2-yl)-2-(3,5-difluorophenyl)ethyl)-2-((3bS,4aR)-3-(difluoromethyl)-5,5-difluoro-3b,4,4a,5-tetrahydro-1H-cyclopropa[3,4]cyclopenta[1,2-c]pyrazol-1-yl)acetamide]
EC50 (recombinant NL4-3 virus): 90 pM
CC50 at 4 day [1]: > 100000 pM

Cn1nc(NS(C)(=O)=O)c2c(Cl)ccc(-n3c([C@H](Cc4cc(F)cc(F)c4)NC(=O)Cn4nc(C(F)F)c5c4C(F)(F)[C@@H]4C[C@H]54)nc4nc(-c5nccnc5Cl)ccc4c3=O)c21 (atropisomer, axis not shown; (P)) [Example 61, N-((S)-1-((3P)-3-(4-chloro-1-methyl-3-(methylsulfonamido)-1H-indazol-7-yl)-7-(3-chloropyrazin-2-yl)-4-oxo-3,4-dihydropyrido[2,3-d]pyrimidin-2-yl)-2-(3,5-difluorophenyl)ethyl)-2-((3bS,4aR)-3-(difluoromethyl)-5,5-difluoro-3b,4,4a,5-tetrahydro-1H-cyclopropa[3,4]cyclopenta[1,2-c]pyrazol-1-yl)acetamide]
EC50 (recombinant NL4-3 virus): 25 pM
CC50 at 4 day [1]: > 100000 pM

Cn1nc(NS(C)(=O)=O)c2c(Cl)ccc(-n3c([C@H](Cc4cc(F)cc(F)c4)NC(=O)Cn4nc(C(F)F)c5c4C(F)(F)[C@@H]4C[C@H]54)nc4nc(-c5ccn(CC(F)(F)C(F)F)n5)ccc4c3=O)c21 (atropisomer, axis not shown; (P)) [Example 84, N-((S)-1-((3P)-3-(4-chloro-1-methyl-3-(methylsulfonamido)-1H-indazol-7-yl)-4-oxo-7-(1-(2,2,3,3-tetrafluoropropyl)-1H-pyrazol-3-yl)-3,4-dihydropyrido[2,3-d]pyrimidin-2-yl)-2-(3,5-difluorophenyl)ethyl)-2-((3bS,4aR)-3-(difluoromethyl)-5,5-difluoro-3b,4,4a,5-tetrahydro-1H-cyclopropa[3,4]cyclopenta[1,2-c]pyrazol-1-yl)acetamide]
EC50 (recombinant NL4-3 virus): 41 pM
CC50 at 4 day [1]: > 100000 pM

Cn1nc(NS(C)(=O)=O)c2c(Cl)ccc(-n3c([C@H](Cc4cc(F)cc(F)c4)NC(=O)Cn4nc(C(F)F)c5c4C(F)(F)[C@@H]4C[C@H]54)nc4ncc(-c5nccc(C(F)F)n5)cc4c3=O)c21 (atropisomer, axis not shown; (P)) [Example 2, N-((S)-1-((3P)-3-(4-chloro-1-methyl-3-(methylsulfonamido)-1H-indazol-7-yl)-6-(4-(difluoromethyl)pyrimidin-2-yl)-4-oxo-3,4-dihydropyrido[2,3-d]pyrimidin-2-yl)-2-(3,5-difluorophenyl)ethyl)-2-((3bS,4aR)-3-(difluoromethyl)-5,5-difluoro-3b,4,4a,5-tetrahydro-1H-cyclopropa[3,4]cyclopenta[1,2-c]pyrazol-1-yl)acetamide]
EC50 (recombinant NL4-3 virus): 31 pM
CC50 at 4 day [1]: > 100000 pM

— US20220389007A1, “INHIBITORS OF HUMAN IMMUNODEFICIENCY VIRUS REPLICATION” (VIIV HEALTHCARE UK (No. 5) LIMITED, priority 2019, published 2022)
